Where two headings read alike, the source gives them in different places.
Tested on: HIV-1 LAI envelope single-round infectious reporter virus
Test: Single-round infectious luciferase reporter virus (HIV-1 LAI envelope) infection of MT2 cells
Format: cell-based
Settings: Human immunodeficiency virus 1, MT2, 72 h
Description: • Virus production—Human embryonic Kidney cell line, 293T (HEK 293T), was propagated in Dulbecco's Modified Eagle Medium (Invitrogen, Carlsbad, Calif.) containing 10% fetal bovine serum (FBS, Sigma, St. Louis, Mo.). The human T-cell leukemia cell MT2 (AIDS Research and Reference Reagent Program, Cat. 237) was propagated in RPMI 1640 (Invitrogen, Carlsbad, Calif.) containing 10% fetal bovine serum (FBS, Hyclone, Logan, Utah) • Virus infection—Single-round infectious reporter virus was produced by co-transfecting HEK 293T cells with plasmide expressing the HIV-1 LAI envelope along with a plasmid containing an HIV-1 LAI proviral cDNA with the envelope gene replaced by a firefly luciferase reporter gene (Chen et al., Ref 41). Transfections were performed using lipofectAMINE PLUS reagent as described by the manufacturer (Invitrogen, Carlsbad, Calif.). Experimental Procedure • 1. MT2 cells were plated in black, 384 well plates at a cell density of 5×10^3 cells per well in 25 μl RPMI 1640 containing 10% FBS. • 2. Compound (diluted in dimethylsulfoxide and growth medium) was added to cells at 12.5 μl/well, so that the final assay concentration would be ≦50 nM. • 3. 12.5 μl of single-round infectious reporter virus in Dulbecco's Modified Eagle Medium was added to the plated cells and compound at an approximate multiplicity of infection (MOI) of 0.01, resulting in a final volume of 50 μl per well. • 4. Virus-infected cells were incubated at 37 degrees Celsius in a CO2 incubator and harvested 72 h after infection. • 5. Viral infection was monitored by measuring luciferase expression in the infected cells using a luciferase reporter gene assay kit (Steady-Glo, Promega, Madison, Wis.) as described by the manufacturer. Luciferase activity was then quantified by measuring luminescence using an EnVision Multilabel Plate Readers (PerkinElmer, Waltham, Mass.). • 6. The percent inhibition for each compound was calculated by quantifying the level of luciferase expression in cells infected in the presence of each compound as a percentage of that observed for cells infected in the absence of compound and subtracting such a determined value from 100. • 7. An EC50 provides a method for comparing the antiviral potency of the compounds of this disclosure. The effective concentration for fifty percent inhibition (EC50) was calculated with the Microsoft Excel Xlfit curve fitting software. For each compound, curves were generated from percent inhibition calculated at 10 different concentrations by using a four parameter logistic model (model 205). Table 1 is the key for the data in Table 2.

[1] = read-out: EC50 Group from Table 1

## N#C/C(=C1\CCN(C(=O)C(=O)c2c[nH]c3c(-n4ccnn4)ncc(F)c23)NC1)c1ccccc1 [Compound 1001]
[1]
  EC50: < 500 nM

## COc1cnc(-n2cnc(C)n2)c2[nH]cc(C(=O)C(=O)N3CC/C(=C(\C#N)c4ccccc4)CN3)c12 [Compound 1002]
  EC50: 0.29 nM
[1]
  EC50: < 500 nM

## COc1cnc(-n2cnc(C)n2)c2[nH]cc(C(=O)C(=O)N3CC/C(=C(/C#N)c4ccccc4)CN3C)c12 [Compound 1006, (Z)-2-(1-(2-(4-methoxy-7-(3-methyl-1H-1,2,4-triazol-1-yl)-1H-pyrrolo[2,3-c]pyridin-3-yl)-2-oxoacetyl)-2-methylpiperazin-4-ylidene)-2-phenylacetonitrile]
  EC50: 456 nM
[1]
  EC50: < 500 nM

## COc1cnc(-n2cnc(C)n2)c2[nH]cc(C(=O)C(=O)N3CCc4c(-c5ccccc5)ncnc4N3C)c12 [Compound 2001, 1-(4-methoxy-7-(3-methyl-1H-1,2,4-triazol-1-yl)-1H-pyrrolo[2,3-c]pyridin-3-yl)-2-(1-methyl-5-phenyl-3,4-dihydropyrimido[4,5-c]pyridazin-2(1H)-yl)ethane-1,2-dione]
[1]
  EC50: < 500 nM

## COc1cnc(-n2cnc(C)n2)c2[nH]cc(C(=O)C(=O)N3CCc4c(-c5ccccn5)ncnc4N3C)c12 [Compound 2002, 1-(4-methoxy-7-(3-methyl-1H-1,2,4-triazol-1-yl)-1H-pyrrolo[2,3-c]pyridin-3-yl)-2-(1-methyl-5-(pyridin-2-yl)-3,4-dihydropyrimido[4,5-c]pyridazin-2(1H)-yl)ethane-1,2-dione]
[1]
  EC50: < 500 nM

## COc1cnc(-n2cnc(C)n2)c2[nH]cc(C(=O)C(=O)N3C(C)Cc4c(-c5ccccc5)ncnc4N3C)c12 (stereo not drawn) [Compound 2003, 1-(1,3-dimethyl-5-phenyl-3,4-dihydropyrimido[4,5-c]pyridazin-2(1H)-yl)-2-(4-methoxy-7-(3-methyl-1H-1,2,4-triazol-1-yl)-1H-pyrrolo[2,3-c]pyridin-3-yl)ethane-1,2-dione]
[1]
  EC50: < 500 nM

## COc1cnc(-n2cnc(C)n2)c2[nH]cc(C(=O)C(=O)N3CCc4c(ncnc4-c4ccccc4)N3)c12 [Compound 2004, 1-(4-methoxy-7-(3-methyl-1H-1,2,4-triazol-1-yl)-1H-pyrrolo[2,3-c]pyridin-3-yl)-2-(5-phenyl-3,4-dihydropyrimido[4,5-c]pyridazin-2(1H)-yl)ethane-1,2-dione]
[1]
  EC50: < 500 nM
